Assays:
[1] = Selectivity index, ratio of CC50 for african green monkey BSC1 cells ot EC50 for Simian virus 40 PML2 DAR; format: functional, BSC-1
Simian virus 40 [2] = assay: Antiviral activity against Simian virus 40 PML1 EK in african green monkey BSC1 cells assessed as reduction of virus-induced cytopathogenicity; format: functional, organism-based; settings: Betapolyomavirus macacae, BSC-1
[3] = Cytotoxicity against african green monkey BSC1 cells; format: cell-based, BSC-1; settings: chlorocebus aethiops
Simian virus 40 [4] = assay: Antiviral activity against Simian virus 40 A2895 in african green monkey BSC1 cells assessed as reduction of virus-induced cytopathogenicity; format: functional, organism-based; settings: Betapolyomavirus macacae, A2895, BSC-1
[5] = Selectivity index, ratio of CC50 for mouse UC1B cells to EC50 of Murine polyomavirus MN/RDE Toronto; format: functional
Murine polyomavirus [6] = assay: Antiviral activity against Murine polyomavirus PTA in mouse UC1B cells assessed as reduction of virus-induced cytopathogenicity; format: functional, cell-based; settings: Alphapolyomavirus muris
Murine polyomavirus [7] = assay: Antiviral activity against Murine polyomavirus MN/RDE Toronto in mouse UC1B cells assessed as reduction of virus-induced cytopathogenicity; format: functional, cell-based; settings: Alphapolyomavirus muris
[8] = Selectivity index, ratio of CC50 for mouse UC1B cells to EC50 of Murine polyomavirus LID1; format: functional
[9] = Selectivity index, ratio of CC50 for mouse UC1B cells to EC50 of Murine polyomavirus PTA; format: functional
[10] = Selectivity index, ratio of CC50 for african green monkey BSC1 cells ot EC50 for Simian virus 40 PML1 EK; format: functional, BSC-1
[11] = Cytotoxicity against mouse UC1B cells; format: cell-based
[12] = Selectivity index, ratio of CC50 for mouse UC1B cells to EC50 of Murine polyomavirus 2PTA2; format: functional
Murine polyomavirus [13] = assay: Antiviral activity against Murine polyomavirus LID1 ATCC VR-252 in mouse UC1B cells assessed as reduction of virus-induced cytopathogenicity; format: functional, cell-based; settings: Alphapolyomavirus muris
Simian virus 40 [14] = assay: Antiviral activity against Simian virus 40 PML2 DAR in african green monkey BSC1 cells assessed as reduction of virus-induced cytopathogenicity; format: functional, organism-based; settings: Betapolyomavirus macacae, BSC-1
[15] = Selectivity index, ratio of CC50 for african green monkey BSC1 cells ot EC50 for Simian virus 40 A2895; format: functional, BSC-1
Murine polyomavirus [16] = assay: Antiviral activity against Murine polyomavirus 2PTA2 in mouse UC1B cells assessed as reduction of virus-induced cytopathogenicity; format: functional, cell-based; settings: Alphapolyomavirus muris, 2PTA2, UC1B
Murine polyomavirus [17] = assay: Antiviral activity against Murine polyomavirus LID1 in UC1B cells assessed as reduction of virus yield; format: functional; settings: Alphapolyomavirus muris
Simian virus 40 [18] = assay: Antiviral activity against Simian virus 40 A2895 in african green monkey BSC1 cells assessed as reduction of virus yield; format: functional; settings: Betapolyomavirus macacae, A2895, BSC-1
Murine polyomavirus [19] = assay: Antiviral activity against Murine polyomavirus PTA in UC1B cells assessed as reduction of virus yield; format: functional; settings: Alphapolyomavirus muris

Compound | Ratio CC50/EC50 [1] | EC50 (Simian virus 40 [2]) | CC50 [3] | EC50 (Simian virus 40 [4]) | Ratio CC50/EC50 [5] | EC50 (Murine polyomavirus [6]) | EC50 (Murine polyomavirus [7]) | Ratio CC50/EC50 [8] | Ratio CC50/EC50 [9] | Ratio CC50/EC50 [10] | CC50 [11] | Ratio CC50/EC50 [12] | EC50 (Murine polyomavirus [13]) | EC50 (Simian virus 40 [14]) | Ratio CC50/EC50 [15] | EC50 (Murine polyomavirus [16]) | EC99 (Murine polyomavirus [17]) | EC99 (Simian virus 40 [18]) | EC99 (Murine polyomavirus [19])
Nc1ncnc2c1ncn2C[C@H]1COP(=O)(O)CO1 | 9.7 | 49.8 µM | 371 µM | 32.6 µM | 4.9 | 65.3 µM | 39 µM | 3.2 | 2.9 | 7.5 | 190 µM | 4 | 58.6 µM | 38.3 µM | 11.4 | 47.4 µM | – | – | –
Nc1ncn(C[C@@H](CO)OCP(=O)(O)O)c(=O)n1 | 27.4 | 14.6 µM | 436 µM | 16.1 µM | 30.6 | 13.9 µM | 9.6 µM | 18.2 | 21.1 | 29.9 | 294 µM | 21.1 | 16.1 µM | 16.1 µM | 27.1 | 13.9 µM | – | – | –
Nc1ncn(C[C@H]2COP(=O)(O)CO2)c(=O)n1 | 16.9 | 19.8 µM | 323 µM | 19.8 µM | 8.1 | 32 µM | 17.1 µM | 3.7 | 4.3 | 16.3 | 139 µM | 6.8 | 38.1 µM | 19.1 µM | 16.3 | 20.6 µM | – | – | –
CCCCCCCCCCCCCCCCOCCOP1(=O)CO[C@@H](Cn2cnc(N)nc2=O)CO1 (stereo not given in full) | 39.4 | 0.23 µM | 13.4 µM | 0.3 µM | 34.2 | 0.53 µM | 0.55 µM | 21.4 | 35.5 | 58.3 | 18.8 µM | 33.6 | 0.88 µM | 0.34 µM | 44.7 | 0.56 µM | 0.81 µM | 0.26 µM | 0.43 µM
Nc1nc(N)c2ncn(C[C@@H](CO)OCP(=O)(O)O)c2n1 | 4.6 | 33.6 µM | 217 µM | 49.3 µM | 3 | 8.2 µM | 7.2 µM | 2.4 | 2.6 | 6.5 | 21.4 µM | 3.4 | 9.1 µM | 47.1 µM | 4.4 | 6.3 µM | – | – | –
Nc1nccc2c1ncn2C[C@@H](CO)OCP(=O)(O)O | 6 | 6 µM | 43.7 µM | 13.9 µM | 4.9 | 14.9 µM | 9.9 µM | 3.5 | 3.3 | 7.3 | 49 µM | 4.2 | 13.9 µM | 7.3 µM | 3.1 | 11.6 µM | – | – | –
Nc1cc(OC[C@@H](CO)OCP(=O)(O)O)nc(N)n1 | 1.2 | 73.1 µM | 140 µM | 72.8 µM | 0.9 | 10.9 µM | 11.2 µM | 1.3 | 1 | 1.9 | 10.5 µM | 0.8 | 8.2 µM | 112 µM | 1.9 | 13.9 µM | – | – | –
Nc1ncnc2c1ncn2C[C@@H](CO)OCP(=O)(O)O | 8.8 | 15.4 µM | 89.3 µM | 12.3 µM | 2.6 | 14.5 µM | 9.5 µM | 1.8 | 1.7 | 5.8 | 24.3 µM | 2.6 | 13.2 µM | 10.2 µM | 7.3 | 9.5 µM | – | – | –
Nc1cc(OCCOCP(=O)(O)O)nc(N)n1 | 0.4 | 140 µM | 72.8 µM | 148 µM | 2 | 9.5 µM | 21.2 µM | 3.6 | 4.5 | 0.5 | 43.2 µM | 2.7 | 12.1 µM | 181 µM | 0.5 | 15.9 µM | – | – | –
Nc1ncnc2c1ncn2CCOCP(=O)(O)O [ADEFOVIR] | 1.7 | 168 µM | 210 µM | 158 µM | 2.5 | 11.3 µM | 9.5 µM | 2.4 | 2.1 | 1.3 | 24.2 µM | 1.9 | 9.9 µM | 126 µM | 1.3 | 12.8 µM | – | – | –
Nc1ccn(C[C@@H](CO)OCP(=O)(O)O)c(=O)n1.O.O [CIDOFOVIR] | 23.8 | 19.3 µM | 424 µM | 19 µM | 13 | 16.2 µM | 13 µM | 9 | 10.4 | 21.9 | 169 µM | 8.9 | 18.7 µM | 17.8 µM | 22.3 | 19 µM | – | – | –
Nc1ccn(C[C@H]2COP(=O)(O)CO2)c(=O)n1 [CYCLIC CIDOFOVIR] | >=36.3 | 20.8 µM | ≥ 672 µM | 22.2 µM | 16.7 | 54.4 µM | 34.9 µM | 13.8 | 10.7 | >=32.3 | 582 µM | 9.5 | 42 µM | 18.5 µM | >=30.3 | 61.2 µM | – | – | –

From ChEMBL document CHEMBL1145476, “Inhibitory activities of three classes of acyclic nucleoside phosphonates against murine polyomavirus and primate simian virus 40 strains” (Antimicrob Agents Chemother, 2007)
